We go through two compounds from patent US20260226128A1, “Capped Peptides and Methods for Using the Same” (The Board of Trustees of the Leland Stanford Junior …, priority 2023, published 2026).

Data set [1] relates to diet induced obese mice. In words: Food intake 2 hours post injection of CAP-GDF15 human homologue. It is filed as in vivo, mouse. The conditions noted are these: 50 mg/kg, single injection, versus vehicle. As for the experimental part:
FIG. 12. Human CAP-GDF15 homologue inhibits food intake. Food intake of diet induced obese mice 2 hours post injection with vehicle or 50 mg/kg CAP-GDF15 human homologue (pGlu-[…]-NH2). (N=8 mice/group, error bars are SEM, and P values calculated with two-sided Student's T test.)
Human CAP-GDF15 treatments in mice. Singly housed diet induced obese (on high fat diet, 4 months old, male, C57BL/6J, Jackson cat #380050) mice were injected with vehicle (18:1:1 Saline: DMSO: Kolliphor EL) or 50 mg/kg CAP-GDF15 human homologue (pGlu-[…]-NH2) once at ~5 μm. Food weight was measured before injection and 2 hours post to calculated food intake. (N=8 mice/group)

Data set [2] addresses T1, human TACR1 (Homo sapiens, UniProt P25103).
T1 construct: host or cells: PathHunter beta-arrestin CHO-K1 cells
The experiment in a line: human TACR1-beta arrestin recruitment assay (PathHunter beta-arrestin CHO-K1 cells). The class given is cell-based. The conditions noted are these: human TACR1-transfected PathHunter beta-arrestin CHO-K1 cells. An excerpt: (§1) FIG. 4. […] (A) Schematic and annotation of the primary amino acid sequence for full-length mouse TAC1 preproprotein and its cleavage products. […] For (B), N=2 per concentration; for (C), N=3 per condition. For (B,C), data are shown as means±SEM. * P<0.05, ** P<0.01 versus control by Student's t-test.
(Recruitment of arrestin is a read-out of receptor activation apart from second messengers.)

The nature of data set [3]: Half-life of peptides incubated in mouse plasma, levels by LC-MS. As for the experimental part: as §1
Half-life calculations of CAP-TAC1 in plasma. 10 µM of either synthetic CAP-TAC1 or SP was incubated with 100 μl of mouse plasma. Samples were incubated at 37° C. for 0, 10, 30, 60, or 90 minutes (N=3 for each time point). At the indicated time point, 1 μl of HALT protease inhibitor was immediately added, and plasma was boiled and prepared using the peptidomics workflow described above. […] Half-lives were calculated using an exponential decay fit.

The test system of data set [4] is diet induced obese mice. The experiment in a line: Daily CAP-TAC1 treatment of diet induced obese mice with pair fed group. It is filed as in vivo, mouse. The conditions noted are these: 10 mg/kg daily. As for the experimental part:
FIG. 10. […] (A) Body weight change and (B) food intake of diet induced obese mice injected with vehicle (18:1:1 Saline: DMSO: Kolliphor EL), 10 mg/kg CAP-TAC1 (pGlu-FFGLM-NH2), and vehicle pair fed to CAP-TAC1 group. (N=6 for vehicle, N=7 for CAP-TAC1 and pair fed groups, error bars are SEM, and P values calculated with two-way ANOVA.)
CAP-TAC1 treatments in mice. Injected diet induced obese (on high fat diet, 4 months old, male, C57BL/6J, Jackson cat #380050) mice daily with vehicle (18:1:1 Saline: DMSO: Kolliphor EL) or 10 mg/kg CAP-TAC1 (pGlu-FFGLM-NH2). The pair fed group was started one day later and fed the same food the CAP-TAC1 mice ate daily. Mice were singly housed and injected daily ~12 μm. Mouse body weights and food weights were measured at the same time. (N=6 for vehicle, N=7 for CAP-TAC1 and pair fed groups.)

Data set [5] deals with diet induced obese mice. In words: Oxygen consumption after single CAP-TAC1 injection, metabolic chambers. It is filed as in vivo, mouse. The conditions noted are these: single injection at T=0, 10 mg/kg (FIG. 11 legend), over 24 hours. As for the experimental part: FIG. 11. CAP-TAC1 acutely induces oxygen consumption over 24 hours. Oxygen consumption (VO2) of diet induced obese mice injected with a single injection at T=0 vehicle (18:1:1 Saline: DMSO: Kolliphor EL) or 10 mg/kg CAP-TAC1 (pGlu-FFGLM-NH2). (N=4 for vehicle and CAP-TAC1 groups, error bars are SEM, and P values calculated with two-way ANOVA.)
Metabolic chamber studies. For acute energy expenditure studies, food intake, RER, movement, VO2, and VCO2 were collected with CLAMS Oxymax Metabolic Cages. Mice were placed individual metabolic cages for 24 hours prior to experiment. For CAP-GDF15 experiments, mice were injected with either vehicle, 50 mg/kg CAP-GDF15, or 50 mg/kg scrambled CAP-GDF15 at 5 μm at T=0. For CAP-TAC1 experiments, mice were injected with either vehicle (18:1:1 Saline: DMSO: Kolliphor EL) or […] CAP-TAC1 (pGlu-FFGLM-NH2) at ~12 μm (T=0). Food intake, RER, movement, VO2, and VCO2 were collected every 7 minutes for […] immediately after injection. All experiments were done with 3-5 month old DIO mice (Jackson, stock 380050), fed high fat diet ad libitum.

pEC50: −log10 of the molar value. Where a SMILES comes first, the peptide text is derived from it.

T1 sequence (P25103 whole entry): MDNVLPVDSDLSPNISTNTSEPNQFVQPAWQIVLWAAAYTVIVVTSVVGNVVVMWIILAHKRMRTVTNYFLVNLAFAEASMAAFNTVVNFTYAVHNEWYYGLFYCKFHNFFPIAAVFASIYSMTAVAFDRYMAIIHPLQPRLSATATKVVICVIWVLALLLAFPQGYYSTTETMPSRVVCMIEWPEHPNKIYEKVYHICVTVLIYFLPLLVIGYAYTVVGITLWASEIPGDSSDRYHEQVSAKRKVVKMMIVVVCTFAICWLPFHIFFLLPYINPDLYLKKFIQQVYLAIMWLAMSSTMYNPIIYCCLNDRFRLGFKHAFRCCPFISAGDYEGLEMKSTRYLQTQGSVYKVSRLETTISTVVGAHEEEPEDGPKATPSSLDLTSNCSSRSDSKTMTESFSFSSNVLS

In the case of “pGlu-LELHLRPQAAR-NH2 (HELM PEPTIDE1{[Glp].L.E.L.H.L.R.P.Q.A.A.R.[am]}$$$$V2.0; SMILES CC(C)C[C@H](NC(=O)[C@@H]1CCC(=O)N1)C(=O)N[C@@H](CCC(=O)O)C(=O)N[C@@H](CC(C)C)C(=O)N[C@@H](Cc1c[nH]cn1)C(=O)N[C@@H](CC(C)C)C(=O)N[C@@H](CCCNC(=N)N)C(=O)N1CCC[C@H]1C(=O)N[C@@H](CCC(N)=O)C(=O)N[C@@H](C)C(=O)N[C@@H](C)C(=O)N[C@@H](CCCNC(=N)N)C(N)=O) [human homologue of CAP-GDF15]”, the “food intake 2 hours post injection” value in data set [1] is given as “acutely inhibits food intake”.
As for `CSCC[C@H](NC(=O)[C@H](CC(C)C)NC(=O)CNC(=O)[C@H](Cc1ccccc1)NC(=O)[C@H](Cc1ccccc1)NC(=O)[C@@H]1CCC(=O)N1)C(N)=O` [CAP-TAC1, pGlu-FFGLM-NH2] (HELM PEPTIDE1{[Glp].F.F.G.L.M.[am]}$$$$V2.0), the pEC50 in data set [2] (read-out: ED50, agonism of TACR1) was 9.15. In addition, the Emax in data set [2] (read-out: maximal activation, % of maximal response) stood at 96.6%. Moreover, the “peptide level in mouse plasma after 90 min” value in data set [3] is on record as “still detectable”. Also, in data set [3] (mouse, plasma), the half-life at 10 µM was found to be 14.4 min. Further, the food intake entry in data set [4] (versus vehicle) is “independent of any changes of food intake”. Further, the body weight change result in data set [4] (versus vehicle and pair fed group) is recorded as “induces body weight loss”. In data set [5], the “oxygen consumption (VO2)” value was “induces an increase in oxygen consumption”.

As a reminder, the half-life is the time in which the quantity being followed falls by half. A higher half-life goes with slow loss.
